Data taken from US20210214341A1, “SUBSTITUTED PYRIDINYL AZETIDINONE DERIVATIVES FOR USE IN TREATING CANCER AND OTHER DISEASES” (The Board of Regents of the University of Texas System, priority 2018, published 2021).
Read-outs that look alike come from different tables or passages of the source.

Assays:
PANC-1 tumorspheres = assay: 3D-tumorsphere formation assay; format: cell-based, human; details: for IC50: Homo sapiens, tumorspheres larger than 100 micrometers counted after 144 hrs
Method: Number of tumorspheres formed can be used to distinguish the efficacy of different anticancer drugs in a more physically acceptable method than 2D culture. Based on selectivity and toxicity towards PANC-1 cells in comparison to normal pancreatic ductal epithelial cells (Table D), six compounds (A, B, C, E, F, and G) were chosen for the 3D-tumorsphere formation assay. The assay was carried out by following the protocol developed by Johnson et al., (2013). PANC-1 cells (5000) were plated as single cells in Corning ultra-low attachment 24 well plates in 0.5 ml DMEM+10% FBS. The cells were grown in a humidified atmosphere of 5% CO2 for 168 hrs. 0.1 ml Media was added on 72nd and 144 hrs. The β-lactams were dissolved in DMSO and maintained at −20° C. On the day of assay, on the addition of media, the drugs were freshly diluted in media. The final concentrations of drugs were 0, 1 nM, 10 nM, 100 nM, 1 uM, 10 μM. After 144 hours the total number tumorspheres that were larger than 100 micrometers were counted in a field of 1 mm×1 mm at 10× magnification in a bright field microscope. The data was plotted and the IC50 value was calculated.
3D-tumorsphere formation assay is considered to be a fast and economical intermediary step between in vitro and in vivo biological evaluations. A tumorsphere is a solid, spherical formation developed from the proliferation of a single cancer stem/progenitor cell in 3D culture. These cells are easily distinguishable from single or aggregated as they appear to become fused together and individual cells cannot be appearing to become fused together and individual cells cannot be identified. The size can vary from less than 50 micrometers to 250 micrometers. The number of tumorspheres formed can be used to characterize the cancer stem cell population within different in vitro cultured cancer cell lines. The number of tumorspheres formed can also be used to distinguish the efficacy of different anticancer drugs in a more physically acceptable method than 2D culture. Based on selectivity and toxicity towards PANC-1 cells in comparison to normal pancreatic ductal epithelial cells (Table D), six compounds (A, B, C, E, F, and G) were chosen for the 3D-tumorsphere formation assay. The assay was carried out by following the protocol developed by Johnson et al., (2013). […] The below steps were followed to accomplish the assay. • 5000 PANC-1 cells were plated as single cells in Corning ultra-low attachment 24 well plates in 0.5 ml DMEM+10% FBS. • Cells were grown in a humidified atmosphere of 5% CO2 for 168 hrs. 0.1 ml Media was added on 72nd and 144 hrs. • Drugs were dissolved in DMSO and maintained at −20° C. On the day of assay, on the addition of media, the drugs were freshly diluted in media. • The final concentrations of drugs were 0, 1 nM, 10 nM, 100 nM, 1 μM, 10 μM. • After 144 hrs the total number tunorspheres that were larger than 100 micrometers were counted in a field of 1 mm×1 mm at 10× magnification in a bright field microscope. The data was plotted and the IC50 value was calculated.

[1] = test system: pancreatic cancer cells PANC-1 (ATCC CRL-1469); assay: SRB (Sulforhodamine B) assay in PANC-1 cells; format: cell-based; details: Homo sapiens, read-out: IC50 (PANC-1)
Method: (§1) FIGS. 1A-1B show the IC50 curves of the twelve investigational β-lactams in pancreatic cancer cells PANC-1 (ATCC CRL-1469) and normal pancreatic ductal epithelial cells (ATCC CRL-4038). The GraphPad Prism software was used to process the results. The IC50 values were determined by SRB (Sulforhodamine B) assay following standard procedure. PANC-1 cells were plated in 96 well plates and treated with 1, 10, 100, 1000 and 10,000 nM of each of the drugs in triplicate for 72 hrs. Cells were fixed, washed and stained with SRB dye, the stained cells were washed, and the dye solubilized. It was read using a plate reader at 565 nm. The IC50 values were calculated assuming that the 10 μM sample has reached saturation. Following similar way, IC50 values were determined for normal pancreatic ductal epithelial cells.
(§2) As mentioned earlier, PANC-1 is referred to generically as the “gold standard of pancreatic cancers” representing as it does almost total resistance to GEM, the first line treatment currently used in clinical situations. Pancreatic cancer cells PANC-1 (ATCC CRL-1469) and normal pancreatic ductal epithelial cells (ATCC CRL-4038) were used in this study. The GraphPad Prism software was used to process the results. […] Cells were fixed, washed and stained with SRB dye, the stained cells were washed, and the dye solubilized. It was read using a plate reader at 565 nm. The IC50 values were calculated assuming that the 10 μM sample has reached saturation. Following similar way, IC50 values were determined for normal pancreatic ductal epithelial cells.

[2] = test system: normal pancreatic ductal epithelial cells (ATCC CRL-4038); assay: SRB (Sulforhodamine B) assay in normal pancreatic ductal epithelial cells; format: cell-based; details: Epithelial cell, read-out: IC50 (NPC)
Method: as §1, §2

HS 766T = assay: Cytotoxicity IC50 in HS 766T cells; format: cell-based; details: Homo sapiens, Hs766T; HS 766T cell line; read-out: IC50 (mean ± standard error)
Source text: (§3) B. Cytotoxicity Studies: Determination of IC50 Values (Single Run) in Capan-2, HPAC. HPAF-II, and HS766T Cell Lines
(§4) Capan-2, HPAC. HPAF-H, and HS766T. The compounds A, D, E, G, and H were chosen randomly, out of twelve β-laclam molecules, to carry out this evaluation.

HPAF-II = assay: Cytotoxicity IC50 in HPAF-II cells; format: cell-based; details: Homo sapiens; HPAF-II cell line; read-out: IC50 (mean ± standard error)
Source text: as §3, §4

PANC-1 cells = assay: Flow cytometric cell cycle analysis; format: cell-based, human; details: tested for 24, 48 and 72 hrs
Method: The noise was cleared. […] After 72 hrs all the cells (including floaters) were collected, the adhered cells were trypsinized and collected as well. The cells were then centrifuged in a 50 mL centrifuge tube. The pellet was washed with PBS and reconstituted in 500 μL PBS. The cells were then fixed in ice cold ethanol by adding the ethanol dropwise while gently vortexing the cells. Stored at 4° C. for overnight. The cells were then centrifuged, and the pellet reconstituted in Guava cell cycle reagent and analyzed in a Guava flow cytometer. A similar experiment was conducted with normal pancreatic ductal epithelial cells (NPC) and the drug treatment was done according to the IC50 values observed in the 2D assay conducted on them (Table E). Please note that 2N represents G0/G1 and 4N for G2 phases.
After 72 hrs all the cells (including floaters) were collected, the adhered cells were trypsinized and collected as well. The cells were then centrifuged in a 50 mL centrifuge tube. The pellet was washed with PBS and reconstituted in 500 μL PBS. The cells were then fixed in ice cold ethanol by adding the ethanol dropwise while gently vortexing the cells. […] The cells were then centrifuged, and the pellet reconstituted in Guava cell cycle reagent and analyzed in a Guava flowcytometer. […] First set of data with PANC-1 cells were analyzed by using FlowJo software, the noise was cleared (FIG. 3). […]

[3] = test system: pancreatic cancer cells PANC-1 (ATCC CRL-1469); details: cited from earlier work
[4] = PANC-1, 2D-culture, SRB, 72 hrs, average of 3 runs
[5] = 2D-culture, SRB, average of 3 runs

With `Cc1ccc(S(=O)(=O)O[C@@H]2C(=O)N(c3cc4c5ccccc5ccc4c4ccccc34)[C@H]2c2ccc(F)cn2)cc1` (racemic) [(±)-Trans-N-(chrysen-6-yl)-2-(5-fluoropyridin-2-yl)-4-oxoazetidin-3-yl 4-methylbenzenesulfonate] the melting point was 220 to 221 °C.
Work on `CS(=O)(=O)O[C@@H]1C(=O)N(c2cc3c4ccccc4ccc3c3ccccc23)[C@H]1c1ccc(F)cn1` (racemic) [(±)-Trans-N-(chrysen-6-yl)-2-(5-fluoropyridin-2-yl)-4-oxoazetidin-3-yl methanesulfonate] yielded a melting point of 253 to 254 °C.
For `N#CC1CN(S(=O)(=O)O[C@@H]2C(=O)N(c3cc4c5ccccc5ccc4c4ccccc34)[C@H]2c2ccc(F)cn2)C1` (racemic) [Compound C, (±)-Trans-N-(chrysen-6-yl)-2-(5-fluoropyridin-2-yl)-4-oxoazetidin-3-yl 3-cyanoazetidine-1-sulfonate], the “activity in 3D-tumorsphere formation assay compared with 2D-culture” value (from here on “activity … compared with 2D-culture”) (PANC-1 tumorspheres) was “higher activity in 3D-tumorphere formation assay than 2D-culture”, the IC50 (PANC-1 tumorspheres) was 0.00233 µM and the melting point was 212 to 213 °C. For the same molecule, the IC50 [1, 4] was 0.00352 µM and the IC50 [2, 5] was 0.0425 µM.
In the case of `O=C1[C@@H](OS(=O)(=O)N2CCCC2)[C@H](c2ccc(F)cn2)N1c1cc2c3ccccc3ccc2c2ccccc12` (racemic) [Compound I, (±)-Trans-N-(chrysen-6-yl)-2-(5-fluoropyridin-2-yl)-4-oxoazetidin-3-yl pyrrolidine-1-sulfonate], the melting point is reported as 205 to 206 °C, the IC50 [1, 4] is reported as 0.0586 µM and the IC50 [2, 5] is reported as 0.201 µM.
For `CC(C)N(C)S(=O)(=O)O[C@@H]1C(=O)N(c2cc3c4ccccc4ccc3c3ccccc23)[C@H]1c1ccc(F)cn1` (racemic) [E, (±)-Trans-N-(chrysen-6-yl)-2-(5-fluoropyridin-2-yl)-4-oxoazetidin-3-yl isopropyl(methyl)sulfamate], the IC50 (HS 766T) was 0.04 µM, the “activity … compared with 2D-culture” value (PANC-1 tumorspheres) was “higher activity in 3D-tumorphere formation assay than 2D-culture” and the IC50 (PANC-1 tumorspheres) was 0.00625 µM. It also gave a melting point of 166 to 167 °C, an IC50 (HPAF-II) of 0.5 ± 0.16 µM and an IC50 [1, 4] of 0.00865 µM. It also gave an IC50 [2, 5] of 0.424 µM.
With `O=C1[C@@H](OS(=O)(=O)C2CC2)[C@H](c2ccc(F)cn2)N1c1cc2c3ccccc3ccc2c2ccccc12` (racemic) [F, (±)-Trans-N-(chrysen-6-yl)-2-(5-fluoropyridin-2-yl)-4-oxoazetidin-3-yl cyclopropanesulfonate] the “activity … compared with 2D-culture” value (PANC-1 tumorspheres) was “higher activity in 3D-tumorphere formation assay than 2D-culture”, the IC50 (PANC-1 tumorspheres) was 0.0191 µM and the melting point was 180 to 181 °C. For the same molecule, the IC50 [1, 4] was 0.0272 µM and the IC50 [2, 5] was 0.356 µM.
Molecule `CN1CCN(S(=O)(=O)O[C@@H]2C(=O)N(c3cc4c5ccccc5ccc4c4ccccc34)[C@H]2c2ccc(F)cn2)CC1` (racemic) [G, (±)-Trans-N-(chrysen-6-yl)-2-(5-fluoropyridin-2-yl)-4-oxoazetidin-3-yl 4-methylpiperazine-1-sulfonate] has a melting point of 146 to 147 °C, an IC50 (HPAF-II) of 1.18 ± 0.26 µM and an IC50 [1, 4] of 0.00269 µM. It also gave an IC50 [2, 5] of 0.00843 µM.
`C[Si](C)(C)CCS(=O)(=O)O[C@@H]1C(=O)N(c2cc3c4ccccc4ccc3c3ccccc23)[C@H]1c1ccc(F)cn1` (racemic) [H, (±)-Trans-N-(chrysen-6-yl)-2-(5-fluoropyridin-2-yl)-4-oxoazetidin-3-yl 2-(trimethylsilyl)ethane-1-sulfonate] gave an IC50 (HS 766T) of 0.79 ± 0.12 µM, a melting point of 210 to 211 °C and an IC50 (HPAF-II) of 0.66 ± 0.12 µM. For the same molecule, the IC50 [1, 4] was 0.0304 µM and the IC50 [2, 5] was 0.0485 µM.
Work on `CN(C)S(=O)(=O)O[C@@H]1C(=O)N(c2cc3c4ccccc4ccc3c3ccccc23)[C@H]1c1ccc(F)cn1` (racemic) [J, (±)-Trans-N-(chrysen-6-yl)-2-(5-fluoropyridin-2-yl)-4-oxoazetidin-3-yl dimethylsulfamate] yielded a melting point of 196 to 198 °C, an IC50 [1, 4] of 0.212 µM and an IC50 [2, 5] of 1.05 µM.
`O=C=NS(=O)(=O)O[C@@H]1C(=O)N(c2cc3c4ccccc4ccc3c3ccccc23)[C@H]1c1ccc(F)cn1` (racemic) [K, (±)-Trans-N-(chrysen-6-yl)-2-(5-fluoropyridin-2-yl)-4-oxoazetidin-3-yl sulfurisocyanatidate] showed an IC50 ([1]; PANC-1, 72 h) of 0.0296 µM and an IC50 [2] of 0.416 µM.
In the case of `Cc1ccc(S(=O)(=O)O[C@@H]2C(=O)N(c3cc4c5ccccc5ccc4c4ccccc34)[C@H]2c2ccc(F)cn2)cc1` (racemic) [L, (±)-Trans-N-(chrysen-6-yl)-2-(5-fluoropyridin-2-yl)-4-oxoazetidin-3-yl 4-methylbenzenesulfonate], the IC50 (PANC-1 tumorspheres) is reported as 0.00457 µM, the IC50 [1, 4] is reported as 0.00338 µM and the “time of maximum cell cycle blockage” value (PANC-1 cells) is reported as 72 h. The IC50 [2, 5] was 0.0133 µM.
For `CS(=O)(=O)O[C@H]1C(=O)N(c2cc3c4ccccc4ccc3c3ccccc23)C1c1ccccn1` (stereo partly drawn) [TX-262], the IC50 ([3]; TX-262, from Banik et al., WO 2012/103456, read-out: IC50 (PANC-1)) is listed as 0.43 µM and the IC50 ([3]; TX-262, read-out: PANC-1 cell lines IC50) is listed as 0.43 µM.
